What was measured:
[1] = target: T1, Tyrosine-protein kinase Lck (Homo sapiens, UniProt P06239); assay: Inhibition of p56 Lck tyrosine kinase in Jurkat cells where p56lck autophosphorylation is inhibited.; assay type: cell-based
[2] = target: T2, Epidermal growth factor receptor (Homo sapiens, UniProt P00533); assay: Inhibition of Epidermal growth factor receptor autophosphorylation.
[3] = target: T1, Tyrosine-protein kinase Lck; assay: Inhibition of p56lck kinase autophosphorylation in Jurkat cells; assay type: cell-based
[4] = target: T2, Epidermal growth factor receptor
Description: Inhibition of Epidermal growth factor receptor autophosphorylation, 0.05-0.10

T1 sequence (P06239 whole entry): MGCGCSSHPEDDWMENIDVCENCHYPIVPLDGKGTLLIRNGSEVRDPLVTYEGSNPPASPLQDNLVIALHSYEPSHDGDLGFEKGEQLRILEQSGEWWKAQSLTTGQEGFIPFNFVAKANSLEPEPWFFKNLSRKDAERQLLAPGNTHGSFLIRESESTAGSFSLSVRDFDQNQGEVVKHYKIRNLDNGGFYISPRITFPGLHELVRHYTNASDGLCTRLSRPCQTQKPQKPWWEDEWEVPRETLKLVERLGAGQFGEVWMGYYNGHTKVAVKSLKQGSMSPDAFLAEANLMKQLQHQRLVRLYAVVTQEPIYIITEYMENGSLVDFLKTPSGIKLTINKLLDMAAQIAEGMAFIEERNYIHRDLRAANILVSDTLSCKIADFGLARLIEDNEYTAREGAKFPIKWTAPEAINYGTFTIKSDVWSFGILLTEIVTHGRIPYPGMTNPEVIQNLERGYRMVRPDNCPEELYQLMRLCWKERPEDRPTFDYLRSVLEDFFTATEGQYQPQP
T2 sequence (P00533 whole entry): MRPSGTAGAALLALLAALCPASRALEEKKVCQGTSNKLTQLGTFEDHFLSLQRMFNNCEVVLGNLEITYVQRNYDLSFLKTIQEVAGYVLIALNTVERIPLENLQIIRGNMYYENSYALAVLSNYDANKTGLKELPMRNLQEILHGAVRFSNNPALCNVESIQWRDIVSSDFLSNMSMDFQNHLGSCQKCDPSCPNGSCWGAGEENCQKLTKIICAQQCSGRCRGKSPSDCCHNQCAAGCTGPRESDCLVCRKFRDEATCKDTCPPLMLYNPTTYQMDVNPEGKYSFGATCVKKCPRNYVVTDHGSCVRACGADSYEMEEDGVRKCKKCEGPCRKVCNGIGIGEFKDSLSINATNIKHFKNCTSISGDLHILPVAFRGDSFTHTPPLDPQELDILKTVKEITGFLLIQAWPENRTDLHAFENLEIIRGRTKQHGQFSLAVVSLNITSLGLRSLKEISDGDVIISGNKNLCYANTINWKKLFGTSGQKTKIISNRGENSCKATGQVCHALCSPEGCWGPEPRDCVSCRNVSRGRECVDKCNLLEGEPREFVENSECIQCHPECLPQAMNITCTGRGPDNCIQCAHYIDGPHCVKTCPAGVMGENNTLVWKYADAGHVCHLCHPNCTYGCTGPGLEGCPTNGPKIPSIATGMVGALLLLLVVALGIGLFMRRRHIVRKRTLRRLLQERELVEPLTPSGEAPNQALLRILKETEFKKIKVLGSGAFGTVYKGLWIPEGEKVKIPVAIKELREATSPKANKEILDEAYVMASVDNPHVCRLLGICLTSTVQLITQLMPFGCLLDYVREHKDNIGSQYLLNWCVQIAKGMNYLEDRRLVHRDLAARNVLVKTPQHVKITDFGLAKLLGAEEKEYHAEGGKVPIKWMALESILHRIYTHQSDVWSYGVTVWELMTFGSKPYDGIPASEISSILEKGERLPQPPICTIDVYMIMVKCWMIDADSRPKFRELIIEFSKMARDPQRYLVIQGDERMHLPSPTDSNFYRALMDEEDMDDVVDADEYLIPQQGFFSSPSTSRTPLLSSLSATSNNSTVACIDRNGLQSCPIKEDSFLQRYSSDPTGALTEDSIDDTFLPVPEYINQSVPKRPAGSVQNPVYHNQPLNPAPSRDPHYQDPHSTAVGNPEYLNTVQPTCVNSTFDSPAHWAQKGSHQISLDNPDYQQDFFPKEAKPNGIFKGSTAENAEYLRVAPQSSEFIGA

| SMILES | IC50 [1] [µM] | IC50 [2] [µM] | other results |
| --- | --- | --- | --- |
| COc1cc2ncnc(Nc3ccc4c(c3)CCC4)c2cc1OC | 50 | – | – |
| COc1cc2ncnc(NCc3ccccc3)c2cc1OC | – | 0.004 | – |
| COc1ccc(Nc2ncnc3cc(OC)c(OC)cc23)cc1 | 10 | 0.25 | – |
| COc1c(C=O)c(O)cc2c1C(=O)c1ccccc1C2=O [DAMNACANTHAL] | 0.017 | – | – |
| COc1cc2ncnc(N(C)c3ccccc3)c2cc1OC | – | – | IC50 [3]: > 100 µM |
| COc1cc2ncnc(Nc3ccccc3)c2cc1OC | – | – | IC50 [3]: 10 µM |
| COc1cc(Nc2[nH]cnc3nncc2-3)cc(OC)c1OC | 10 | – | – |
| COc1cc2ncnc(Sc3cccc(Cl)c3)c2cc1OC | – | 0.01 | – |
| Clc1cccc(Nc2ncnc3ccccc23)c1 | – | – | IC50 [3]: 50 µM; IC50 [4]: 0.05 µM |
| COc1cc2ncnc(Nc3ccc(O)cc3)c2cc1OC | 3 | 0.1 | – |
| COc1cc2ncnc(Nc3cccc(F)c3)c2cc1OC | 10 | – | – |
| COc1ccc(Sc2ncnc3cc(OC)c(OC)cc23)cc1OC | > 50 | > 50 | – |
| COc1cc2ncnc(Nc3ccc(N4CCOCC4)cc3)c2cc1OC | > 100 | > 1 | – |
| COc1cc2ncnc(Nc3cccc(Cl)c3)c2cc1OC | – | – | IC50 [3]: 5 µM |
| COc1cc2ncnc(Oc3cccc(Cl)c3)c2cc1OC | – | 0.02 | – |

Continued, in another order:

| IC50 [1] [µM] | IC50 [2] [µM] | SMILES | other results |
| --- | --- | --- | --- |
| – | 0.35 | COc1ccc(Nc2ncnc3cc(OC)c(OC)cc23)cc1OC | IC50 ([1]; jurkat): 10 µM |
| 10 | 0.1 | COc1ccc2ncnc(Nc3cc(OC)c(OC)c(OC)c3)c2c1 | – |
| – | 3 | COc1cc(Nc2ncnc3cc(OC)c(OC)cc23)cc(OC)c1 | IC50 ([3]; jurkat): 10 µM |
| > 100 | > 20 | COc1cc(Nc2ncnc3c(OC)c(OC)c(OC)cc23)cc(OC)c1OC | – |
| > 100 | > 20 | COc1cc(Nc2ncnc3c(C)cc(C)cc23)cc(OC)c1OC | – |
| > 50 | > 1 | COc1cc(Nc2ncnc3ccc(Cl)cc23)cc(OC)c1OC | – |
| 50 | – | COc1cc(Nc2[nH]cnc3ncnc2-3)cc(OC)c1OC | – |
| > 100 | > 20 | COc1cc2nc(Cl)nc(Nc3cc(OC)c(OC)c(OC)c3)c2cc1OC | – |

Source: ChEMBL document CHEMBL1129839, “The preparation and sar of 4-(anilino), 4-(phenoxy), and 4-(thiophenoxy)-quinazolines: Inhibitors of p56lck and EGF-R tyrosine kinase activity” (Bioorg Med Chem Lett, 1997)
